Measured values as given in US20090069363A1, “Therapeutic Agent for Constipation” (SHIONOGI & CO. LTD. A LEGAL ENTITY OF JAPAN, priority 2004, published 2009).

What was measured:
[1] = tested on: morphine-induced gastrointestinal transit inhibition; experiment: Influence on morphine-induced inhibitory action against transport competence of gastrointestinal tract (carbon powder transfer rate); assay type: in vivo; details: mouse, 15 min before morphine 3 mg/kg s.c.
Protocol: After weighing each test compound, 0.5% methylcellulose (methylcellulose: Wako Pure Chemicals, water for injection: Otsuka Pharmaceutical Factory) was added, and the obtained mixture was well stirred to prepare solutions containing the test compound at final concentrations of 3 mg/mL, 1 mg/mL and 0.3 mg/mL, respectively.
After weighing each test compound, 5% xylitol (Kylit injection (registered trademark), Otsuka Pharmaceutical Factory) was added and the mixture was well stirred to prepare solutions containing the test compound at a final concentration of 1 mg/mL. The solutions having concentrations of 0.3 mg/mL and 0.1 mg/mL, respectively, were prepared by diluting the solution having the concentration of 1 mg/mL.
Preparation Method: After weighing, physiological saline was added and the mixture was well stirred to prepare a solution having a concentration of 0.3 mg/mL.
• Crj:CD-1(ICR) mouse (SPF, male, 5-week old, body weight: 25.6-32.0 g (oral administration), 26.3-33.0 g (subcutaneous administration), Charles River Laboratories Japan)
• Control Group: 8 animals; Solvent-administered Group: 8 animals; Compound 1: 3, 10 and 30 mg/kg Groups: each 8 animals; Compound 2: 3, 10 and 30. mg/kg Groups: each 8 animals; Compound 3: 3, 10 and 30 mg/kg Groups: each 8 animals
• Control Group: 8 animals, Solvent-administered Group: 8 animals; Compound 1: 3, 10 and 30 mg/kg Groups: each 8 animals; Compound 2: 3, 10 and 30 mg/kg Groups: each 8 animals; Compound 3: 3, 10 and 30 mg/kg Groups: each 8 animals
• Administration volume: 10 mL/kg • Administration Method: Oral administration was carried out using a disposable syringe and an oral feeding tube.
Subcutaneous administration was carried out using a disposable syringe and a disposable injection needle. • Administration Frequency: single
Mice fasted overnight from the evening on one day before the test were used. Each test compound was administered, and 15 minutes later, morphine (3 mg/kg) was subcutaneously administered. 30 minutes after the administration of morphine, carbon powder (a suspension containing 5% of carbon powder suspended in 10% gum Arabic) was orally administered to each mouse in an amount of 0.1 mL, and the transfer rate (the distance which the carbon powder reached/the distance between the pylorus to cecum opening×100) was measured at 30 minutes after the administration of carbon powder. To the solvent-administered group, a solvent (methylcellulose or xylitol) was administered in place of the test substance solution. To the control group, none of the test substance, morphine and the solvent was administered and the transfer rate of the carbon powder was measured.

[2] = tested on: morphine-induced small intestine transit inhibition; experiment: Influence on morphine-induced small intestine transit inhibition (Evans blue test meal); assay type: in vivo; details: rat
Protocol: Using aqueous 0.5 w/v % Evans blue solution, 2.5 w/v % carboxymethylcellulose salt solution was prepared and used as the test meal.
Male Wistar rats (Crj. Wistar, Charles River Laboratories Japan, 6 to 7-week old) were used. The rats were fasted from not less than 20 hours before the beginning of the test, and water was given ad libitum.
The compound (I-1) synthesized in Example 1 was dissolved in a solvent (DMAA/Solutol/5% meglumine=15/15/70) • DMAA: N,N-dimethylacetamide (Kanto Chemical) • Solutol: Solutol (registered trademark) HS15 (BASF) • Meglumine: D(−)-N-methylglucamin (Merck)
Morphine hydrochloric acid salt (Dainippon Pharma) was dissolved in normal saline.
All of the test substance, solvent and morphine were administered in avolume of 2 mL/kg.
Each test substance in an amount of 0.03, 0.1, 0.3, 1 or 3 mg/kg (Test Substance—administered Groups) or the above-described solvent (Solvent-administered Group) was subcutaneously administered, and 75 minutes later, 3 mg/kg of morphine was subcutaneously administered to all groups. […]
The test meal in an amount of 2 mL/rat was orally administered at 30 minutes after the administration of morphine. […] The distance between the cardia and the ileocecum (full length of small intestine), and the distance up to the tip of the pigment (moving distance of the pigment) were measured. […]

[3] = test substance 1 mg/kg subcutaneous
[4] = test substance 3 mg/kg subcutaneous
[5] = test substance 10 mg/kg subcutaneous

SMILES	Transfer Rate of Carbon Powder (%) [1, 3] [%]	Transfer Rate of Carbon Powder (%) [1, 4] [%]	Transfer Rate of Carbon Powder (%) [1, 5] [%]	ED50 against morphine-induced small intestine transit inhibition ([2]; test substance s.c. 75 min before morphine 3 mg/kg s.c., calculated from % MPE) [mg/kg]	antagonistic action against morphine-induced small intestine transit inhibition ([2]; test substance s.c., morphine 3 mg/kg s.c.)	Transfer Rate of Carbon Powder (%) ([1]; test substance 3 mg/kg oral)	Transfer Rate of Carbon Powder (%) ([1]; test substance 10 mg/kg oral)	Transfer Rate of Carbon Powder (%) ([1]; test substance 30 mg/kg oral)
Cc1ccc(/C=C2\C[C@@]3(O)[C@H]4Cc5ccc(O)c6c5[C@@]3(CCN4CC3CC3)[C@@H](O6)C2=O)cc1 [Compound 3]	32 ± 2	43 ± 1	53 ± 3	–	–	–	–	–
O=C(O)c1ccc2c3c([nH]c2c1)[C@@H]1Oc2c(O)ccc4c2[C@@]12CCN(CC1CC1)[C@H](C4)[C@]2(O)C3 [Compound I-1, 17-cyclopropylmethyl-6,7-didehydro-4,5α-epoxy-3,14β-dihydroxy-6′-carboxy-6,7-2′,3′-indolomorphinan]	–	–	–	0.29	exhibited antagonistic action	–	–	–
CCOC(=O)c1ccc2c3c([nH]c2c1)[C@@H]1Oc2c(O)ccc4c2[C@@]12CCN(CC1CC1)[C@H](C4)[C@]2(O)C3 [Compound 2]	35 ± 3	53 ± 3	55 ± 2	–	–	43 ± 2	38 ± 2	52 ± 3
Cn1c2c(c3ccccc31)C[C@@]1(O)[C@H]3Cc4ccc(O)c5c4[C@@]1(CCN3CC1CC1)[C@H]2O5 [Compound 1]	41 ± 2	43 ± 3	46 ± 3	–	–	38 ± 2	35 ± 2	40 ± 2
